Experimental data as given in the NIST ThermoML archive (doi:10.1021/je500867u).
Numbers after ± are expanded uncertainties.

Conditions: Crystal; visual observation

Nc1ccc(S(=O)(=O)O)cc1 [4-aminobenzenesulfonic acid]
Normal melting temperature: 288.0 ± 0.5 °C
